This is an account of results in PMC6152322, “Synthesis and Evaluation of New Oxadiazole, Thiadiazole, and Triazole Derivatives as Potential Anticancer Agents Targeting MMP-9” (Molecules : A Journal of Synthetic Chemistry and Natural …, 2017).

The structures appear in SMILES notation. Like-named read-outs stand apart in the source and are kept apart here.

The subject of series [1] is A549 human lung adenocarcinoma cell line. The series can be described thus: XTT cytotoxicity assay on A549 cells. The following applies: for IC50: Mean ± standard deviation, read-out: IC50 Values for Cell Lines A549. The series is classed as cell-based. An excerpt: (§1) NIH/3T3 Mouse embryonic fibroblast (ATCC® CRL-1658™, American Type Culture Collection (ATCC), Manassas, VA, USA), A549 human lung adenocarcinoma (ATCC® CCL-185™, American Type Culture Collection (ATCC), Manassas, VA, USA) and C6 rat glioma (ATCC® CCL-107™, American Type Culture Collection (ATCC), Manassas, VA, USA) cell lines were used for cytotoxicity tests. NIH/3T3 cell line was used to investigate the selectivity of the compounds, whereas other cell lines were used to determine anticancer activity. All cell lines were incubated according to the instructions of the supplier at 37 °C in a humidified atmosphere of 95% air and 5% CO2. NIH/3T3, A549 and C6 cells were seeded at 1 × 10^4 cells into each well of 96-well plate. After 24 h of incubating period, the culture mediums were removed and compound was added to culture medium at 500–3.9 μg/mL doses with a dilution factor of 2 (3.9, 7.8, 15.6, 31.2, 62.5, 125, 250, 500 μg/mL). After 24 h of incubation, XTT (2,3-bis(2-methoxy-4-nitro-5-sulfophenyl)-2H-tetrazolium-5-carboxanilide) assay was performed using the In Cytotox-XTT 1 Parameter Cytotoxicity Kit (Xenometrix, Allschwil, Switzerland) as previously described. […] All experiments were done in quadruplicates at three different time points, and the results were given as Mean ± standard deviation. Cisplatin was used as a positive control. The stock solutions of the compounds were prepared in dimethyl sulfoxide (DMSO) and further dilutions were made with fresh culture medium. The final DMSO concentration was under 0.1%.
(§2) Inhibition%=100−( corrected mean OD sample/corrected mean OD solvent controls ×100)

The subject of a further series is C6 rat glioma cell line. Put plainly: XTT cytotoxicity assay on C6 cells. The series is classed as cell-based. The following applies: 24 h incubation, Mean ± standard deviation, read-out: IC50 Values for Cell Lines C6.
Text: as §1, §2

In series [2] the test system is NIH/3T3 mouse embryonic fibroblast cell line. Put plainly: XTT cytotoxicity assay on NIH/3T3 cells. The series is classed as cell-based. The following applies: NIH3T3, 24 h incubation, Mean ± standard deviation, read-out: IC50 Values for Cell Lines NIH/3T3.
Text: as §1, §2

Another series addresses T1, MMP-8 (Homo sapiens, UniProt P22894).
T1 construct: purchased Enzo Life Sciences Inc
The series can be described thus: MMP-8 colorimetric inhibition assay. The following applies: for Inhibition % (Mean ± SD) MMP-8: 1.3 μM. The series is classed as biochemical. An excerpt:
(§3) MMP-1, -2, -8, -9, -13 colorimetric kits were purchased from Enzo Life Sciences Inc. (Farmingdale, New York, NY, USA). The MMP Colorimetric Drug Discovery Kits are complete assay system designed to screen MMP inhibitors using a thiopeptide as a chromogenic substrate (Ac-PLG-[2-mercapto-4-methyl-pentanoyl]-LG-OC2H5). The MMP cleavage site peptide bond is replaced by a thioester bond in the thiopeptide. Hydrolysis of this bond by a MMP produces a sulfhydryl group, which reacts with DTNB [5,5′-dithiobis(2-nitrobenzoic acid), Ellman’s reagent] to form 2-nitro-5-thiobenzoic acid, which can be detected by its absorbance at 412 nm. The assays were conducted in triplicate. The UV absorbance was read at 412 nm using a microplate reader (BioTek, PowerWave, Gen5 software, Winooski, VT, USA) at room temperature. NNGH was used as a control inhibitor. Data was expressed as Mean ± SD [63].
(§4) The inhibitor% remaining activity of MMPs was calculated using the following equation: Inhibitor% activity remaining = (V inhibitor/V control) × 100
(§5) The inhibition (percent) of MMPs was calculated using the following equation:I (%) = 100 − Inhibitor% activity remaining

In another series the target is T2, MMP-9 (Homo sapiens, UniProt P14780).
T2 construct: purchased Enzo Life Sciences Inc
Put plainly: MMP-9 colorimetric inhibition assay. The series is classed as biochemical. The following applies: for inhibition at 1.3 µM: read-out: Inhibition % (Mean ± SD) MMP-9.
Text: as §3, §4, §5

The target in a further series is T3, MMP-1 (Homo sapiens, UniProt P03956).
T3 construct: purchased Enzo Life Sciences Inc
T3 sequence (P03956 100-469): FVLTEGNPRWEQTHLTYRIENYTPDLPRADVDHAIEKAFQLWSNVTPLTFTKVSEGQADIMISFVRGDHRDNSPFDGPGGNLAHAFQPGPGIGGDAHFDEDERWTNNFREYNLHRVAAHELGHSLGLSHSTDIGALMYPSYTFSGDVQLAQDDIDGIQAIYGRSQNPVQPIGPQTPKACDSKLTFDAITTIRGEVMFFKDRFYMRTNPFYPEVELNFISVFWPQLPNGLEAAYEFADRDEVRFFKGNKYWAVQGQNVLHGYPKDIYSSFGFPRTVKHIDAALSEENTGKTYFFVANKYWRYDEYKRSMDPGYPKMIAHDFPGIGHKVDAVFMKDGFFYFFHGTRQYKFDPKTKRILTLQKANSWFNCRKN
Put plainly: MMP-1 colorimetric inhibition assay. The series is classed as biochemical. The following applies: 1.3 μM.
Text: as §3, §4, §5

Another series deals with T4, MMP-2 (Homo sapiens, UniProt P08253).
T4 construct: purchased Enzo Life Sciences Inc
T4 sequence (P08253 110-660): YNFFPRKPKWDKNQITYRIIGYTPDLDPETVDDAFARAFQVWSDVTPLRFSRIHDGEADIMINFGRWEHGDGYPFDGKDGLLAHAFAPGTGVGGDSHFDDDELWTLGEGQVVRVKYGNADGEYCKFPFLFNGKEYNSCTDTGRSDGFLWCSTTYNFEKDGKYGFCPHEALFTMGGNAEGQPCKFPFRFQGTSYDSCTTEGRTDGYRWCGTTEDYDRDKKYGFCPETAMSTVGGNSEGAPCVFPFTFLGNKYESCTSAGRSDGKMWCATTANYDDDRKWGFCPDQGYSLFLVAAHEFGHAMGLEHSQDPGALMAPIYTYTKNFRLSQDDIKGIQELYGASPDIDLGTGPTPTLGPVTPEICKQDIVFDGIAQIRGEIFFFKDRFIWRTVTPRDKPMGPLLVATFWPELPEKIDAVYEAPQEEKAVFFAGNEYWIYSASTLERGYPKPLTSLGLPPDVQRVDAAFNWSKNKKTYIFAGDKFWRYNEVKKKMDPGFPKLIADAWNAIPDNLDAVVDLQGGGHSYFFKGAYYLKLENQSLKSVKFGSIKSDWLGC
Put plainly: MMP-2 colorimetric inhibition assay. The series is classed as biochemical. The following applies: 1.3 μM.
Text: as §3, §4, §5

For the next series, the target named is T5, MMP-13 (Homo sapiens, UniProt P45452).
T5 construct: purchased Enzo Life Sciences Inc
Put plainly: MMP-13 colorimetric inhibition assay. The series is classed as biochemical. The following applies: 1.3 μM.
Text: as §3, §4, §5

Setting [3] is: Homo sapiens, A549, 24 h incubation.

T2 sequence (P14780 94-707): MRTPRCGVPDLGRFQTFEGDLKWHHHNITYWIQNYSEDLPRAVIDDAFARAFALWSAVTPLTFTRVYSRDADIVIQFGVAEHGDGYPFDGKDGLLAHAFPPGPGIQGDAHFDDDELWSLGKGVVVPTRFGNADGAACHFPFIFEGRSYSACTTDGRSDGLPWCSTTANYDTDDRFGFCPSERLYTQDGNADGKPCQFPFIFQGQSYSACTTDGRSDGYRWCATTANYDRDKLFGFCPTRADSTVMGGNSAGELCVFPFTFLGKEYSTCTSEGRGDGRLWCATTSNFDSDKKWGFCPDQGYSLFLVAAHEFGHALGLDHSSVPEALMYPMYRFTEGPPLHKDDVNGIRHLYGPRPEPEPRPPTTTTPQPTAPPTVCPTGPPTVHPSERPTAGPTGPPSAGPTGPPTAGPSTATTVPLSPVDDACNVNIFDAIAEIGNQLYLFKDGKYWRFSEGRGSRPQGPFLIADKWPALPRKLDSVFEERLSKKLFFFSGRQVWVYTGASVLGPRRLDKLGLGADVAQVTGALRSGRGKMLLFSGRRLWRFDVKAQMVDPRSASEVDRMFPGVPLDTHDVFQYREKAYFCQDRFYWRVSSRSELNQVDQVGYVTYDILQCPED
T1 sequence (P22894 101-467): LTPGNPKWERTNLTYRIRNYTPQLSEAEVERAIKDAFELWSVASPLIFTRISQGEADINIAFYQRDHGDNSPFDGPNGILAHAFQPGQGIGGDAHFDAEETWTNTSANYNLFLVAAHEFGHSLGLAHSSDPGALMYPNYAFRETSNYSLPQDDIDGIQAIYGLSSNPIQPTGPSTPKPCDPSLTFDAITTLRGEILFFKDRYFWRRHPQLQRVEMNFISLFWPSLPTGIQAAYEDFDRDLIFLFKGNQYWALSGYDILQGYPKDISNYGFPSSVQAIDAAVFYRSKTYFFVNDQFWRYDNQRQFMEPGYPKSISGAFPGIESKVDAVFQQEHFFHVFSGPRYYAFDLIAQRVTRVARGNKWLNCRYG

`N.N.[Cl][Pt][Cl]` [Cisplatin, reference compound]: the IC50 in series [1] (24 h incubation) came out at 140 ± 30 µM; in the series on C6 rat glioma cell line, 103 ± 26 µM.

Consider `O=C(CSc1nnc(Nc2ccc(Cl)cc2Cl)s1)N1CCOCC1` [Compound 1, 2-{[5-((2,4-Dichlorophenyl)amino)-1,3,4-thiadiazol-2-yl]thio}-1-morpholinoethan-1-one], for which the melting point worked out at 154 °C. For the same molecule, the IC50 in [2] came out at 308 ± 37 µM. Moreover, the IC50 in [1] (setting [3]) was more than 1230 µM. The IC50 in the series with C6 rat glioma cell line (Rattus norvegicus, Glioma cell) amounted to 128 ± 27 µM. Also, the inhibition at 1.3 µM at MMP-8 (read-out: Inhibition % (Mean ± SD) MMP-8) is 15 ± 1.4%. Also, the inhibition at 1.3 µM at MMP-9 worked out at 24.8 ± 0.86%.

For the molecule `Nn1c(COc2ccccc2)nnc1SCC(=O)N1CCOCC1` [Compound 2, 2-{[4-Amino-5-(phenoxymethyl)-4H-1,2,4-triazol-3-yl]thio}-1-morpholinoethan-1-one], the melting point worked out at 213 °C. In addition, the IC50 in series [2] came out at 1410 ± 94 µM. For the same molecule, the IC50 in [1] (setting [3]) was more than 1430 µM. Further, the IC50 with C6 rat glioma cell line (Rattus norvegicus, Glioma cell) is more than 1430 µM.

With `COc1ccc(OCc2nnc(SCC(=O)N3CCOCC3)o2)cc1` [Compound 3, 2-{[5-((4-Methoxyphenoxy)methyl)-1,3,4-oxadiazol-2-yl]thio}-1-morpholinoethan-1-one], the melting point is 119 °C. Also, in series [2], the IC50 amounted to 1370 ± 74 µM. The IC50 in series [1] (setting [3]) turned out to be 1370 ± 58 µM. In addition, the IC50 in the series with C6 rat glioma cell line (Rattus norvegicus, Glioma cell) was determined as 507 ± 49 µM.

As for `O=C(CSc1nnc(COc2ccc3c(c2)CCCC3)o1)N1CCOCC1` [Compound 4, 2-{[5-(((5,6,7,8-Tetrahydronaphthalen-2-yl)oxy)methyl)-1,3,4-oxadiazol-2-yl]thio}-1-morpholinoethan-1-one], the IC50 in series [2] was 1280 ± 90 µM; in series [1] (setting [3]), more than 1280 µM; with C6 rat glioma cell line (Rattus norvegicus, Glioma cell), more than 1280 µM.

Consider `O=C(CSc1nnc(Nc2ccc(Cl)cc2Cl)s1)NCc1ccc2c(c1)OCO2` [Compound 5, N-(1,3-Benzodioxol-5-ylmethyl)-2-{[5-((2,4-dichlorophenyl)amino)-1,3,4-thiadiazol-2-yl]thio}acetamide], for which the melting point came out at 187 °C. Further, the IC50 in series [2] is more than 1070 µM. The “cytotoxic activity against A549 cell line (in words)” value (“cytotoxic activity” below) in series [1] (24 h incubation) is “did not show any cytotoxic activity”. Also, the IC50 in series [1] (setting [3]) was more than 1070 µM. Further, in the series with C6 rat glioma cell line (Rattus norvegicus, Glioma cell), the IC50 is more than 1070 µM.

`Nn1c(COc2ccccc2)nnc1SCC(=O)NCc1ccc2c(c1)OCO2` [Compound 6, 2-{[4-Amino-5-(phenoxymethyl)-4H-1,2,4-triazol-3-yl]thio}-N-(1,3-benzodioxol-5-ylmethyl)acetamide] had a melting point of 148 °C. Also, the IC50 in series [2] was more than 1210 µM. Also, the “cytotoxic activity” value in series [1] (24 h incubation) is “did not show any cytotoxic activity”. Also, in [1] (setting [3]), the IC50 is more than 1210 µM. For the same molecule, the IC50 with C6 rat glioma cell line (Rattus norvegicus, Glioma cell) is more than 1210 µM.

`COc1ccc(OCc2nnc(SCC(=O)NCc3ccc4c(c3)OCO4)o2)cc1` [Compound 7, N-(1,3-Benzodioxol-5-ylmethyl)-2-{[5-((4-methoxyphenoxy)methyl)-1,3,4-oxadiazol-2-yl]thio}acetamide] had a melting point of 127 °C. Also, the IC50 in series [2] was 100 ± 11 µM. In addition, the “cytotoxic activity” value in [1] (24 h incubation) is “did not show any cytotoxic activity”. For the same molecule, the IC50 in series [1] (setting [3]) is more than 1170 µM. Also, the IC50 in the series on C6 rat glioma cell line (Rattus norvegicus, Glioma cell) is more than 1170 µM.

In the case of `O=C(CSc1nnc(COc2ccc3c(c2)CCCC3)o1)NCc1ccc2c(c1)OCO2` [Compound 8, N-(1,3-Benzodioxol-5-ylmethyl)-2-{[5-(((5,6,7,8-tetrahydronaphthalen-2-yl)oxy)methyl)-1,3,4-oxadiazol-2-yl]thio}acetamide], the melting point was 96 °C. Further, in [2], the IC50 was more than 1100 µM. Further, the IC50 in [1] (setting [3]) stood at 125 ± 20 µM. Besides, the IC50 with C6 rat glioma cell line (Rattus norvegicus, Glioma cell) amounted to 137 ± 15 µM. For the same molecule, at MMP-8, the “Inhibition % (Mean ± SD) MMP-8” value is recorded as “no inhibitory activity”. Further, on MMP-9, the inhibition at 1.3 µM is 25.8 ± 2.16%.

Molecule `O=C(CSc1nnc(-c2ccccc2)o1)NCc1ccc2c(c1)OCO2` [Compound 9, N-(1,3-Benzodioxol-5-ylmethyl)-2-[(5-phenyl-1,3,4-oxadiazol-2-yl)thio]acetamide] registered a melting point of 136 °C. Besides, in series [2], the IC50 was found to be 888 ± 29 µM. In addition, in [1] (setting [3]), the IC50 amounted to 349 ± 46 µM. Further, the IC50 in the series with C6 rat glioma cell line (Rattus norvegicus, Glioma cell) came to 157 ± 16 µM. Moreover, on MMP-8, the “Inhibition % (Mean ± SD) MMP-8” value is “no inhibitory activity”. At MMP-9, the inhibition at 1.3 µM stood at 30.5 ± 3.27%.

In the case of `COc1ccc(S(=O)(=O)N(CC(=O)NO)CC(C)C)cc1` [NNGH, N-isobutyl-N-(4-methoxyphenylsulfonyl)glycyl hydroxamic acid], the “Inhibition % (Mean ± SD) MMP-1” value on MMP-1 came to 87.79 ± 3.49%. In addition, on MMP-2, the “Inhibition % (Mean ± SD) MMP-2” value is listed as 100%. Besides, the “Inhibition % (Mean ± SD) MMP-8” value on MMP-8 came to 100%. Besides, the “Inhibition % (Mean ± SD) MMP-9” value at MMP-9 (1.3 μM) was determined as 88.44 ± 3.35%. For the same molecule, at MMP-13, the “Inhibition % (Mean ± SD) MMP-13” value is 93.74 ± 3.06%.
